Reference: patent US20260265238A1, “COMPOUNDS AND PHARMACEUTICAL COMPOSITIONS THAT DEGRADE SWI/SNF-RELATED MATRIX-ASSOCIATED ACTIN-DEPENDENT REGULATOR OF CHROMATIN SUBFAMILY A” (Plexium, Inc., priority 2023, published 2026)

Columns and labels:
[1] = target: T1, SMARCA4-HiBiT HeLa cells (protein which is expressed from the SMARCA4 gene) (Homo sapiens, UniProt P51532); assay: SMARCA4 degradation assay (HiBiT-fusion HeLa cell line, 24 h, luminescence); format: cell-based
T1 construct: protein which is expressed from the SMARCA2 and SMARCA4 genes; host or cells: HeLa (SMARCA4-HiBiT engineered line)
T1 sequence (P51532 whole entry, the tested form may be a part): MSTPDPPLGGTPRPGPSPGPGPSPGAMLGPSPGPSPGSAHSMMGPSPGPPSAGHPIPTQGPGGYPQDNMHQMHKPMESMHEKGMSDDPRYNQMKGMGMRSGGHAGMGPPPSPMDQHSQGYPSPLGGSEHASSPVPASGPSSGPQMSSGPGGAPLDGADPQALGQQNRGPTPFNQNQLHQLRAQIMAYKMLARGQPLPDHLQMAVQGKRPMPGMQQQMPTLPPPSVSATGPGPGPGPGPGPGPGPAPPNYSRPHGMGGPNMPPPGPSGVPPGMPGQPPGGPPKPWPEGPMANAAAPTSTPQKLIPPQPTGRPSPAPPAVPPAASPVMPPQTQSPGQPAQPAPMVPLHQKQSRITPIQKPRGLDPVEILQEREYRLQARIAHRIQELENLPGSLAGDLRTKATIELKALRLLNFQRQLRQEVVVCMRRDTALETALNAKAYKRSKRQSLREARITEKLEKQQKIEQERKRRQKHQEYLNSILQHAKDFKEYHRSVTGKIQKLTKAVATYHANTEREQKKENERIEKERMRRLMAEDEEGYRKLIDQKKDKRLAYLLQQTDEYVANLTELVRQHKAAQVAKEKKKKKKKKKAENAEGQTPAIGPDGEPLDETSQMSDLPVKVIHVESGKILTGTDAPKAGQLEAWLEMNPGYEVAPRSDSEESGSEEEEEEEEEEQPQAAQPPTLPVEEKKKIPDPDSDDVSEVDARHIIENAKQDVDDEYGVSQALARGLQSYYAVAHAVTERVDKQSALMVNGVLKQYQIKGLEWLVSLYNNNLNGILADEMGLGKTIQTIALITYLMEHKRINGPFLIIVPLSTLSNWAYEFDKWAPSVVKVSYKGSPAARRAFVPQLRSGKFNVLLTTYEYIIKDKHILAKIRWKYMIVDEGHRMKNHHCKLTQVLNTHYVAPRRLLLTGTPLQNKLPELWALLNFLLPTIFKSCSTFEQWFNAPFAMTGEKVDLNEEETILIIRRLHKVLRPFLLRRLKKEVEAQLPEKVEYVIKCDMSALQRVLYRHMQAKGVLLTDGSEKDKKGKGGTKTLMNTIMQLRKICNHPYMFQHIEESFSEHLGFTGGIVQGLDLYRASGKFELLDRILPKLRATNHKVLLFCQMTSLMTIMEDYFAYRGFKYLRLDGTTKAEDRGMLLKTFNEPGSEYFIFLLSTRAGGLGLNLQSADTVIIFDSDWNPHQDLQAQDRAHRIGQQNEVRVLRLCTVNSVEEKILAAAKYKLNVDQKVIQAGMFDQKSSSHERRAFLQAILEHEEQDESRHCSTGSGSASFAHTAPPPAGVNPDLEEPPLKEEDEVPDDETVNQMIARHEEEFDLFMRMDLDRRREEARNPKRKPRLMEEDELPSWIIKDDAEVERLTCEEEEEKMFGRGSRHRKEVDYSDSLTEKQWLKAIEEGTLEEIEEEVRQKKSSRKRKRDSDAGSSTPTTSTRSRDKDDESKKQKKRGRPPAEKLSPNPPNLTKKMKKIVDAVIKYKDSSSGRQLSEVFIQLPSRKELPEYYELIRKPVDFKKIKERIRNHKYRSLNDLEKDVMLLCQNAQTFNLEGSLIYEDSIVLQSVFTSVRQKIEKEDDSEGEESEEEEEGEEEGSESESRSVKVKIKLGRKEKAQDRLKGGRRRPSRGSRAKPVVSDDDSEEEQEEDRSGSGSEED
Summary of the method: (§1)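 In this 24-hour cellular degradation readout, HiBiT-tagged HeLa lines received compound at up to typically 10 μM down to 300 pM in 10 points. After lysis with LgBiT and substrate, luminescence signals were used to build dose-response curves for DC50.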

[2] = target: T2, SMARCA2-HiBiT HeLa cells (protein which is expressed from the SMARCA2 gene) (Homo sapiens, UniProt P51531); assay: SMARCA2 degradation assay (HiBiT-fusion HeLa cell line, 24 h, luminescence); format: cell-based
T2 construct: protein which is expressed from the SMARCA2 and SMARCA4 genes; host or cells: HeLa (SMARCA2-HiBiT engineered line)
T2 sequence (P51531 whole entry, the tested form may be a part): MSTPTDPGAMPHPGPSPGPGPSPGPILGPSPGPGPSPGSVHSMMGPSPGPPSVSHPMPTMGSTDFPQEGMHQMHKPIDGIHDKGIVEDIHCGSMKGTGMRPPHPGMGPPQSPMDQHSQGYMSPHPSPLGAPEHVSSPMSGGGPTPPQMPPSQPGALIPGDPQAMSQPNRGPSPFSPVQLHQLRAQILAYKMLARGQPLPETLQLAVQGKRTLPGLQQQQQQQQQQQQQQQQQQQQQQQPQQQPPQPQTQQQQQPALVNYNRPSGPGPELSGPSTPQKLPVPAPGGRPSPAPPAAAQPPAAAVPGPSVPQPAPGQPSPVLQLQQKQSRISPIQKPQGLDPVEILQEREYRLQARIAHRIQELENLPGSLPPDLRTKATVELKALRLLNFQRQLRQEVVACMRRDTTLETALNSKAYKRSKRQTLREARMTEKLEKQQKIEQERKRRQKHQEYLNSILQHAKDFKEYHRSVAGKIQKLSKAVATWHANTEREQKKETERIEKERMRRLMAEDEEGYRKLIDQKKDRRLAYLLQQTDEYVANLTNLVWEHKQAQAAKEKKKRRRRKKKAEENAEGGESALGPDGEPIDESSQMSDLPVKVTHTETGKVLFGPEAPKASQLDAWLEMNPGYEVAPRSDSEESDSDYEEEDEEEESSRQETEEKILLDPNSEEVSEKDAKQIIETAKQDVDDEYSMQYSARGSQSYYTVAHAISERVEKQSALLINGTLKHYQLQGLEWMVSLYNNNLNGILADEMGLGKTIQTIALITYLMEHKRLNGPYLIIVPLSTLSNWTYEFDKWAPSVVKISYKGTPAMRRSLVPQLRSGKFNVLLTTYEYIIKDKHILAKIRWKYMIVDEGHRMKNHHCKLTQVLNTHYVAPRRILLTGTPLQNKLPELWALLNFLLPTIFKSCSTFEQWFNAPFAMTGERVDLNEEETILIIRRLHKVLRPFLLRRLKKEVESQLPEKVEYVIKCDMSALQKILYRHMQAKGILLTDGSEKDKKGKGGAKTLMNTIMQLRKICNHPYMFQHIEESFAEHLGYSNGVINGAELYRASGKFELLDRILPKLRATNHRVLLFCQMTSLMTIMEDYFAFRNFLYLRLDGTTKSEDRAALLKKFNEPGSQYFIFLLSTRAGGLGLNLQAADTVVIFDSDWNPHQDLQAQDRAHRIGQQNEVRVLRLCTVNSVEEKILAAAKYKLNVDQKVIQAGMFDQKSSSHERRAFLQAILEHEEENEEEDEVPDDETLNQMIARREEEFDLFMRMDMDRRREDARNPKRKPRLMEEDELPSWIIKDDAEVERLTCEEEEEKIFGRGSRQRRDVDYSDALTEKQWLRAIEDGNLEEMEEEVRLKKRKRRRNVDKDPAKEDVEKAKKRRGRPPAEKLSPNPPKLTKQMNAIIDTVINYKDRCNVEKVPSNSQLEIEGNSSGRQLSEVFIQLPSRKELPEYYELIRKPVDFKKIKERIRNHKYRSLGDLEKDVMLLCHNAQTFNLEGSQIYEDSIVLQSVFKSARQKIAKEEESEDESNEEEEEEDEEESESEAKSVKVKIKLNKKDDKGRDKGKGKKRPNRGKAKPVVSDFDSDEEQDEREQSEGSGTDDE
Summary of the method: as §1

## C[C@@H]1CCN(c2cc(-c3ccccc3O)nnc2N)CCN1c1nc(C#CCn2ccnc2)ncc1F [Compound P-247, o-{5-[(R)-4-{5-fluoro-2-[3-(1-imidazolyl)-1-propynyl]-4-pyrimidinyl}-5-methyl-1,4-diazepan-1-yl]-6-amino-3-pyridaziny1}phenol]
[1]
  DC50: 50 to 500 nM
[1]; @ 1 μM
  inhibition at 1 µM: 30 to 70%
[2]
  DC50: 50 to 500 nM
[2]; @ 1 μM
  SMARCA2 % Degradation @ 1 μM: ++ (++=30-70%)

## CC(=O)N(C)C/C=C/c1nccc(N2CCN(c3cc(-c4ccccc4O)nnc3N)CC[C@H]2C)n1 [Compound P-153, N-[3-(4-{(R)-4-[3-amino-6-(o-hydroxyphenyl)-4-pyridazinyl]-7-methyl-1,4-diazepan-1-yl}-2-pyrimidinyl)-2-propenyl]-N-methylacetamide]
[1]
  DC50: 50 to 500 nM
[1]; @ 1 μM
  inhibition at 1 µM: 30 to 70%
[2]
  DC50: 50 to 500 nM
[2]; @ 1 μM
  SMARCA2 % Degradation @ 1 μM: ++ (++=30-70%)

## Nc1nnc(-c2ccccc2O)cc1N1CCCC2C1CCN2c1ccnc(C#CCNC(=O)c2cc3ncccn3n2)n1 (stereo not shown) [Compound P-79, N-(3-(4-(4-(3-amino-6-(2-hydroxyphenyl)pyridazin-4-yl)octahydro-1H-pyrrolo[3,2-b]pyridin-1-yl)pyrimidin-2-yl)prop-2-yn-1-yl)pyrazolo[1,5-a]pyrimidine-2-carboxamide]
[1]
  DC50: 50 to 500 nM
[1]; @ 1 μM
  inhibition at 1 µM: 30 to 70%
[2]
  DC50: 500 to 5000 nM
[2]; @ 1 μM
  SMARCA2 % Degradation @ 1 μM: ++ (++=30-70%)

## C[C@@H]1CCN(c2cc(-c3ccccc3O)nnc2N)CCN1c1ccnc(C=CCN(C)CC(F)F)n1 [Compound P-163, o-{5-[(R)-4-(2-{3-[(2,2-difluoroethyl)-N-methylamino]-1-propenyl}-4-pyrimidinyl)-5-methyl-1,4-diazepan-1-yl]-6-amino-3-pyridazinyl}phenol]
[1]
  DC50: 50 to 500 nM
[1]; @ 1 μM
  inhibition at 1 µM: < 30%
[2]
  DC50: 50 to 500 nM
[2]; @ 1 μM
  SMARCA2 % Degradation @ 1 μM: ++ (++=30-70%)

## NCC#Cc1nccc(N2CCC3(CCCN(c4cc(-c5ccccc5O)nnc4N)C3)CC2)n1 [Compound P-89, 2-(6-amino-5-(9-(2-(3-aminoprop-1-yn-1-yl)pyrimidin-4-yl)-2,9-diazaspiro[5.5]undecan-2-yl)pyridazin-3-yl)phenol]
[1]
  DC50: 500 to 5000 nM
[1]; @ 1 μM
  inhibition at 1 µM: < 30%
[2]
  DC50: 500 to 5000 nM
[2]; @ 1 μM
  SMARCA2 % Degradation @ 1 μM: + (+=<30%)

## C[C@H]1CN(c2ccnc(C#CCN3CCCCC3)n2)CCN1c1cc(-c2ccccc2O)nnc1N [Compound P-319, 0-(5-{(S)-2-methyl-4-[2-(3-piperidino-1-propynyl)-4-pyrimidinyl]-1-piperazinyl}-6-amino-3-pyridazinyl)phenol]
[1]
  DC50: < 50 nM
[1]; @ 1 μM
  inhibition at 1 µM: < 30%
[2]
  DC50: < 50 nM
[2]; @ 1 μM
  SMARCA2 % Degradation @ 1 μM: ++ (++=30-70%)

## C[C@@H]1CCN(c2cc(-c3ccccc3O)nnc2N)CCN1c1ccnc(C#CCN2CC(F)C2)n1 [Compound P-230, o-{5-[(R)-4-{2-[3-(3-fluoro-1-azetidinyl)-1-propynyl]-4-pyrimidinyl}-5-methyl-1,4-diazepan-1-y1]-6-amino-3-pyridaziny1}phenol]
[1]
  DC50: 50 to 500 nM
[1]; @ 1 μM
  inhibition at 1 µM: < 30%
[2]
  DC50: 50 to 500 nM
[2]; @ 1 μM
  SMARCA2 % Degradation @ 1 μM: ++ (++=30-70%)

## N#CC1CN(CC#Cc2nccc(N3CCCN(c4cc(-c5ccccc5O)nnc4N)CC3)n2)CCO1 (stereo not shown) [Compound P-310, 4-[3-(4-{4-[3-amino-6-(o-hydroxyphenyl)-4-pyridazinyl]-1,4-diazepan-1-y1}-2-pyrimidinyl)-2-propynyl]-2-morpholinecarbonitrile]
[1]
  DC50: 50 to 500 nM
[1]; @ 1 μM
  inhibition at 1 µM: 30 to 70%
[2]
  DC50: 50 to 500 nM
[2]; @ 1 μM
  SMARCA2 % Degradation @ 1 μM: ++ (++=30-70%)

## Cc1cc(C(=O)NCC#Cc2nccc(N3CCN(c4cc(-c5ccccc5O)nnc4N)CC3)n2)nn1C [Compound P-12, N-(3-(4-(4-(3-amino-6-(2-hydroxyphenyl)pyridazin-4-yl)piperazin-1-yl)pyrimidin-2-yl)prop-2-yn-1-yl)-1,5-dimethyl-1H-pyrazole-3-carboxamide]
[1]
  DC50: 50 to 500 nM
[1]; @ 1 μM
  inhibition at 1 µM: 30 to 70%
[2]
  DC50: 50 to 500 nM
[2]; @ 1 μM
  SMARCA2 % Degradation @ 1 μM: ++ (++=30-70%)

## Nc1nnc(-c2ccccc2O)cc1N1CCCN(c2ccnc(C#CCN3CCS(=O)(=O)CC3)n2)CC1 [Compound P-137, 4-(3-(4-(4-(3-amino-6-(2-hydroxyphenyl)pyridazin-4-yl)-1,4-diazepan-1-yl)pyrimidin-2-yl)prop-2-yn-1-yl)thiomorpholine 1,1-dioxide]
[1]
  DC50: 500 to 5000 nM
[1]; @ 1 μM
  inhibition at 1 µM: 30 to 70%
[2]
  DC50: 500 to 5000 nM
[2]; @ 1 μM
  SMARCA2 % Degradation @ 1 μM: ++ (++=30-70%)

## CSCC#Cc1nccc(N2CCCN(c3cc(-c4ccccc4O)nnc3N)CC2)n1 [Compound P-323, 0-[6-amino-5-(4-{2-[3-(methylthio)-1-propynyl]-4-pyrimidinyl}-1,4-diazepan-1-yl)-3-pyridazinyl]phenol]
[1]
  DC50: 50 to 500 nM
[1]; @ 1 μM
  inhibition at 1 µM: 30 to 70%
[2]
  DC50: 50 to 500 nM
[2]; @ 1 μM
  SMARCA2 % Degradation @ 1 μM: ++ (++=30-70%)

## CC(C)(C)OC(=O)N1CCCC1C#Cc1nccc(N2CCCN(c3cc(-c4ccccc4O)nnc3N)CC2)n1 (stereo not shown) [Compound P-348, tert-butyl 2-[2-(4-{4-[3-amino-6-(o-hydroxyphenyl)-4-pyridazinyl]-1,4-diazepan-1-y1}-2-pyrimidinyl)ethynyl]-1-pyrrolidinecarboxylate]
[1]
  DC50: 50 to 500 nM
[1]; @ 1 μM
  inhibition at 1 µM: > 70%
[2]
  DC50: 50 to 500 nM
[2]; @ 1 μM
  SMARCA2 % Degradation @ 1 μM: +++ (+++=>70%)

## CC(C)(C)OC(=O)N1CCC(C#Cc2nccc(N3CCCN(c4cc(-c5ccccc5O)nnc4N)CC3)n2)CC1 [Compound P-351, tert-butyl 4-[2-(4-{4-[3-amino-6-(o-hydroxyphenyl)-4-pyridazinyl]-1,4-diazepan-1-yl}-2-pyrimidinyl)ethynyl]-1-piperidinecarboxylate]
[1]
  DC50: 500 to 5000 nM
[1]; @ 1 μM
  inhibition at 1 µM: 30 to 70%
[2]
  DC50: 500 to 5000 nM
[2]; @ 1 μM
  SMARCA2 % Degradation @ 1 μM: ++ (++=30-70%)

## C[C@H]1CCN(c2cc(-c3ccccc3O)nnc2N)CCN1c1ccnc(C#CCNC(=O)c2cc3ncccn3n2)n1 [Compound P-102, (S)-N-(3-(4-(4-(3-amino-6-(2-hydroxyphenyl)pyridazin-4-yl)-7-methyl-1,4-diazepan-1-yl)pyrimidin-2-yl)prop-2-yn-1-yl)pyrazolo[1,5-a]pyrimidine-2-carboxamide]
[1]
  DC50: < 50 nM
[1]; @ 1 μM
  inhibition at 1 µM: > 70%
[2]
  DC50: 50 to 500 nM
[2]; @ 1 μM
  SMARCA2 % Degradation @ 1 μM: +++ (+++=>70%)

## CC(=O)NCC#Cc1nccc(N2CCN(c3cc(-c4ccccc4O)nnc3N)CC2)n1 [Compound P-68, N-(3-(4-(4-(3-amino-6-(2-hydroxyphenyl)pyridazin-4-yl)piperazin-1-yl)pyrimidin-2-yl)prop-2-yn-1-yl)acetamide]
[1]
  DC50: > 5000 nM
[2]
  DC50: 50 to 500 nM
[2]; @ 1 μM
  SMARCA2 % Degradation @ 1 μM: + (+=<30%)

## C[C@@H]1CN(CC#Cc2nccc(N3CCCN(c4cc(-c5ccccc5O)nnc4N)CC3)n2)C[C@H](c2ccccc2)O1 [Compound P-380, 0-{5-[4-(2-{3-[(2R,6S)-2-methyl-6-phenyl-4-morpholinyl]-1-propynyl}-4-pyrimidinyl)-1,4-diazepan-1-yl]-6-amino-3-pyridazinyl}phenol]
[1]
  DC50: 500 to 5000 nM
[1]; 1 μM
  inhibition at 1 µM: < 30%
[2]
  DC50: 500 to 5000 nM
[2]; 1 μM
  SMARCA2 % Degradation @ 1 μM: ++ (++=30-70%)

## C[C@@H]1CCN(c2cc(-c3ccccc3O)nnc2N)CCN1c1ccnc(C#C[C@@H](C)O)c1 [Compound P-401, 0-{5-[(R)-4-{2-[(R)-3-hydroxy-1-butynyl]-4-pyridyl}-5-methyl-1,4-diazepan-1-yl]-6-amino-3-pyridazinyl}phenol]
[1]
  DC50: 50 to 500 nM
[1]; 1 μM
  inhibition at 1 µM: > 70%
[2]
  DC50: 50 to 500 nM
[2]; 1 μM
  SMARCA2 % Degradation @ 1 μM: +++ (+++=>70%)
